Test results published in patent US9663511B2, “Sphingosine 1-phosphate receptor antagonists” (ARROYO BIOSCIENCES, LLC, priority 2012, dated 2017).
Where “and” joins values, the source holds several entries; their conditions need not be identical. Equal values may be shown once. Read-outs that look alike come from different tables or passages of the source. Marks after values point to notes of the source that are not given here.

How the values were obtained:
S1P5 receptor = S1P5 receptor (Homo sapiens (Human), UniProt Q9H228); experiment: Antagonist assay (FLIPR TETRA, inhibition of reference agonist EC80) on S1P5; format: cell-based; conditions: tested as the citrate salt
S1P5 receptor, sequence (Q9H228 whole entry): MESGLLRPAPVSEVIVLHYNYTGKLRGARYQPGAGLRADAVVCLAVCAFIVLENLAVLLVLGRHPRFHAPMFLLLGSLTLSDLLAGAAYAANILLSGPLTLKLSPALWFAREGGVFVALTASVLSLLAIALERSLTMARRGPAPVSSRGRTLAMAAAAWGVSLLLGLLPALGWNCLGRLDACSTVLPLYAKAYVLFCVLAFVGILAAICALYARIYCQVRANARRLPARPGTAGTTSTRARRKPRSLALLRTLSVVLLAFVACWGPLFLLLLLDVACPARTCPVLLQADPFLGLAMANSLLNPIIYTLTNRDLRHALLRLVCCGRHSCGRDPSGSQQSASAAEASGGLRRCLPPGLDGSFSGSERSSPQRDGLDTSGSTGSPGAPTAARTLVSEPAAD
Protocol: (§1) Antagonist percentage inhibition determinations were obtained by assaying sample compounds and referencing the control (EC80) wells for each profiled (GPCR) which evaluated binding to S1P2 and S1P5 receptors. The samples were run using a single addition assay protocol. The protocol design is as follows.
(§2) Unless specified otherwise, the sample compounds were diluted in 100% anhydrous DMSO including all dilutions. The compounds were tested as the citrate salt (1 equivalent per molecule). If the sample compound is provided in a different solvent all master stock dilutions are performed in the specified solvent. All control wells contained identical solvent final concentrations as the sample compound wells.
(§3) The sample compounds were transferred from a master stock solution into a daughter plate that was used in the assay. Each sample compound was diluted into an assay buffer (1×HBSS with 20 mM HEPES, 2.5 mM Probenecid, and 0.4% Free Fatty Acid BSA) at an appropriate concentration to obtain final specified concentrations.
(§4) Using the EC80 values that were determined real-time, stimulated all pre-incubated sample compounds and reference antagonists (if applicable) were compared with the EC80 values of reference agonist. These were read for 180 seconds using the FLIPR^TETRA (This assay added reference agonist to respective wells-then fluorescences measurements were collected to calculate IC50 values). All plates were subjected to appropriate baseline corrections. Once baseline corrections were processed, maximum fluorescence values were exported and data manipulated to calculate percentage activation, percentage inhibition and Z′.

[1] = In vitro plasma protein binding; format: in vitro ADME, mouse
S1P2 receptor = S1P2 receptor (Homo sapiens (Human), UniProt O95136); experiment: Antagonist assay (FLIPR TETRA, inhibition of reference agonist EC80) on S1P2; format: cell-based; conditions: tested as the citrate salt
S1P2 receptor, sequence (O95136 whole entry): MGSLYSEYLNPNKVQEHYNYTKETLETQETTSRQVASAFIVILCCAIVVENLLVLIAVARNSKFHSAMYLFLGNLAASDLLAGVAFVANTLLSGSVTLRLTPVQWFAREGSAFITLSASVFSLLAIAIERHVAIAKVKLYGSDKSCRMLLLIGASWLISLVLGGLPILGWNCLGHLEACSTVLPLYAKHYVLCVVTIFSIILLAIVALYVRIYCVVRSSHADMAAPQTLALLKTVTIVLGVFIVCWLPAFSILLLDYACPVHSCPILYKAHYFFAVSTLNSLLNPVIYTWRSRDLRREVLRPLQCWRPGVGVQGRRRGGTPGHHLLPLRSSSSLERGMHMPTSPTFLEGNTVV
Protocol: as §1, §2, §3, §4

[2] = Blood concentrations and pharmacokinetics after 1 mg/kg i.v. in mice; format: in vivo, mouse
Protocol: 1 mg/kg of the compound was injected by IV and blood was withdrawn at the times in table 1. The amount of starting compound was quantified by a standard curve using MS/MS determinations.

[3] = Microsomal intrinsic clearance; conditions: mouse, microsomes, mouse microsomes, test conc. 1 μM
in vitro = conditions: mouse, microsomes, NADPH-dependent Clint (microsomal intrinsic clearance)

SMILES: Cc1nn(C)c2nc(NNC(=O)Nc3cc(Cl)nc(Cl)c3)cc(C(C)C)c12 [JTE013, N-(1H-4-isopropyl-1,3-dimethylpyrazolo[3,4-b]pyridine-6-yl)amino-N′-(2,6-dichloropyridine-4-yl) urea]
- IC50 (S1P5 receptor): 1.3 nM
- mean fraction bound (%) ([1]; mouse plasma, test concentration 5 nM): 99.7%
- IC50 (S1P2 receptor): 11 nM
- AUC0-inf ([2]; mouse blood, individual mice): 88.2 ng·h/mL and 122 ng·h/mL
- AUC0-inf Extrapolated ([2]; mouse blood, individual mice): 6.50% and 2.89% and 12.1%
- AUC0-tlast ([2]; mouse blood, individual mice): 85.6 ng·h/mL and 108 ng·h/mL
- AUMC0-inf ([2]; mouse blood, individual mice): 153 h^2*ng/mL and 71.2 h^2*ng/mL and 652 h^2*ng/mL
- AUMC0-inf Extrapolated ([2]; mouse blood, individual mice): 68.6% and 39.9% and 88.0%
- AUMC0-tlast ([2]; mouse blood, individual mice): 48.1 h^2*ng/mL and 42.8 h^2*ng/mL and 78.0 h^2*ng/mL
- C0 ([2]; mouse blood, individual mice): 397 ng/mL and 536 ng/mL
- CL ([2]; mouse blood, individual mice): 188 mL/min/kg and 136 mL/min/kg
- MRT0-inf ([2]; mouse blood, individual mice): 1.40 h and 0.807 h and 5.33 h
- MRT0-tlast ([2]; mouse blood, individual mice): 0.500 h and 0.725 h
- Terminal half-life ([2]; mouse blood, individual mice): 6.11 h and 3.56 h and 18.7 h
- Vss ([2]; mouse blood, individual mice): 12.8 L/kg and 9.16 L/kg and 43.6 L/kg
- AUC0-inf Extrapolated, Mean S.D. ([2]; mouse blood, mean): 7.15 ± 4.61%
- AUMC0-inf Extrapolated, Mean S.D. ([2]; mouse blood, mean): 65.5 ± 24.2%
- AUMC0-inf, Mean S.D. ([2]; mouse blood, mean): 292 ± 314 h^2*ng/mL
- AUMC0-tlast, Mean S.D. ([2]; mouse blood, mean): 56.3 ± 19.0 h^2*ng/mL
- C0, Mean S.D. ([2]; mouse blood, mean): 462 ± 70.1 ng/mL
- Blood Concentrations ([2]; mouse, 5 min, individual mice, LLOQ = 1 ng/mL): 231 ng/mL and 302 ng/mL
- Blood Concentrations ([2]; mouse, 0.25 h, individual mice, LLOQ = 1 ng/mL): 78.3 ng/mL and 95.8 ng/mL
- Blood Concentrations ([2]; mouse, 0.5 h, individual mice, LLOQ = 1 ng/mL): 33.8 ng/mL and 40.4 ng/mL
- Blood Concentrations ([2]; mouse, 1 h, individual mice, LLOQ = 1 ng/mL): 14.4 ng/mL and 13.4 ng/mL
- Blood Concentrations ([2]; mouse, 2 h, individual mice, LLOQ = 1 ng/mL): 3.16 ng/mL and 3.12 ng/mL
- Blood Concentrations ([2]; mouse, 4 h, individual mice, LLOQ = 1 ng/mL): 0.732^c ng/mL and 0.771^c ng/mL
- Blood Concentrations ([2]; mouse, 6 h, individual mice, LLOQ = 1 ng/mL): 0.496^c ng/mL and 0.643^c ng/mL
- Blood Concentrations ([2]; mouse, 12 h, individual mice, LLOQ = 1 ng/mL): BLQ
- pharmacokinetics / blood levels following intravenous injection in mice (in words) ([2]; mouse, comparison between compounds): better than compound 2
- AUC0-inf ([2]; mouse, in vivo, iv, 1 mg/kg, mouse blood, individual mice, read-out: AUC0-inf): 109 ng·h/mL
- AUC(0-t) ([2]; mouse, in vivo, iv, 1 mg/kg, mouse blood, individual mice, read-out: AUC0-tlast): 102 ng·h/mL
- C0 ([2]; mouse, in vivo, iv, 1 mg/kg, mouse blood, individual mice, read-out: C0): 453 ng/mL
- clearance ([2]; mouse, in vivo, iv, 1 mg/kg, mouse blood, individual mice, read-out: CL (converted)): 153 mL/min/kg
- MRT last ([2]; mouse, in vivo, iv, 1 mg/kg, mouse blood, individual mice, read-out: MRT0-tlast): 0.471 h
- AUC0-inf ([2]; mouse, in vivo, iv, 1 mg/kg, mouse blood, mean, read-out: AUC0-inf, Mean S.D.): 107 ± 17.2 ng·h/mL
- AUC(0-t) ([2]; mouse, in vivo, iv, 1 mg/kg, mouse blood, mean, read-out: AUC0-tlast, Mean S.D.): 98.4 ± 11.4 ng·h/mL
- clearance ([2]; mouse, in vivo, iv, 1 mg/kg, mouse blood, mean, read-out: CL, Mean S.D. (converted)): 159 mL/min/kg
- MRT inf ([2]; mouse, in vivo, iv, 1 mg/kg, mouse blood, mean, read-out: MRT0-inf, Mean S.D.): 2.51 ± 2.46 h
- MRT last ([2]; mouse, in vivo, iv, 1 mg/kg, mouse blood, mean, read-out: MRT0-tlast, Mean S.D.): 0.565 ± 0.139 h
- half-life ([2]; mouse, in vivo, iv, 1 mg/kg, mouse blood, mean, read-out: Terminal half-life, Mean S.D. (converted)): 9.45 ± 8.09 h
- Vd ([2]; mouse, in vivo, iv, 1 mg/kg, mouse blood, mean, read-out: Vss, Mean S.D.): 21.9 ± 18.9 L/kg
- concentration at 5 min ([2]; mouse, in vivo, iv, 1 mg/kg, mouse, 5 min, individual mice, LLOQ = 1 ng/mL, read-out: Blood Concentrations): 282 ng/mL
- concentration at 5 min ([2]; mouse, in vivo, iv, 1 mg/kg, mouse, 5 min, mean of 3 mice, read-out: Blood Concentrations, Mean S.D.): 272 ± 36.6 ng/mL
- concentration at 0.25 h ([2]; mouse, in vivo, iv, 1 mg/kg, mouse, 0.25 h, individual mice, LLOQ = 1 ng/mL, read-out: Blood Concentrations): 109 ng/mL
- concentration at 0.25 h ([2]; mouse, in vivo, iv, 1 mg/kg, mouse, 0.25 h, mean of 3 mice, read-out: Blood Concentrations, Mean S.D.): 94.4 ± 15.4 ng/mL
- concentration at 0.5 h ([2]; mouse, in vivo, iv, 1 mg/kg, mouse, 0.5 h, individual mice, LLOQ = 1 ng/mL, read-out: Blood Concentrations): 44.4 ng/mL
- concentration at 0.5 h ([2]; mouse, in vivo, iv, 1 mg/kg, mouse, 0.5 h, mean of 3 mice, read-out: Blood Concentrations, Mean S.D.): 39.5 ± 5.35 ng/mL
- concentration at 1 h ([2]; mouse, in vivo, iv, 1 mg/kg, mouse, 1 h, individual mice, LLOQ = 1 ng/mL, read-out: Blood Concentrations): 11.8 ng/mL
- concentration at 1 h ([2]; mouse, in vivo, iv, 1 mg/kg, mouse, 1 h, mean of 3 mice, read-out: Blood Concentrations, Mean S.D.): 13.2 ± 1.31 ng/mL
- concentration at 2 h ([2]; mouse, in vivo, iv, 1 mg/kg, mouse, 2 h, individual mice, LLOQ = 1 ng/mL, read-out: Blood Concentrations): 2.72 ng/mL
- concentration at 2 h ([2]; mouse, in vivo, iv, 1 mg/kg, mouse, 2 h, mean of 3 mice, read-out: Blood Concentrations, Mean S.D.): 3 ± 0.243 ng/mL
- concentration at 4 h ([2]; mouse, in vivo, iv, 1 mg/kg, mouse, 4 h, individual mice, LLOQ = 1 ng/mL, read-out: Blood Concentrations): 1.01 ng/mL
- concentration at 4 h ([2]; mouse, in vivo, iv, 1 mg/kg, mouse, 4 h, mean (n = 2 for Cmpd-1), read-out: Blood Concentrations, Mean S.D.): 0.838 ± 0.151 ng/mL
- concentration at 6 h ([2]; mouse, in vivo, iv, 1 mg/kg, mouse, 6 h, individual mice, LLOQ = 1 ng/mL, read-out: Blood Concentrations): 0.805 ng/mL
- concentration at 6 h ([2]; mouse, in vivo, iv, 1 mg/kg, mouse, 6 h, mean (n = 2 for Cmpd-1), read-out: Blood Concentrations, Mean S.D.): 0.648 ± 0.155 ng/mL
- concentration at 12 h ([2]; mouse, in vivo, iv, 1 mg/kg, mouse, 12 h, individual mice, LLOQ = 1 ng/mL, read-out: Blood Concentrations): 0.547 ng/mL
- microsomal CLint at 1 μM ([3]; NADPH-dependent Clint (microsomal intrinsic clearance)): 770 µL/min/mg
- half-life at 1 μM ([3]; NADPH-dependent T1/2 (half-life)): 0.05 h
- microsomal CLint at 1 μM ([3]; NADPH-free Clint (microsomal intrinsic clearance)): 22 µL/min/mg
- half-life at 1 μM ([3]; NADPH-free T1/2 (half-life)): 1.75 h

SMILES: CC(=O)CC(c1ccccc1)c1c(O)c2ccccc2oc1=O (centres unmarked) [Warfarin, reference compound]
- microsomal CLint at 1 μM (in vitro): 15 µL/min/mg
- mean fraction bound (%) ([1]; mouse, 5 nM): 92.1%
